Data: patent publication US20200217837A1, “CHROMATIN PROTECTIVE THERAPEUTICS AND CHROMATIN HETEROGENEITY” (Northwestern University, priority 2016, published 2020)

How the values were obtained:
MDA-MB-231 = assay: Cell survival by surface coverage (% inhibition); conditions: Breast MDA-MB-231
cancer cell lines = assay: Live cell PWS of chromatin folding/heterogeneity (D, Σ); assay type: cell-based; conditions: five cell line models (A2780, M248, MDA-MB-231, MES-SA, MX2)
Protocol: Test compounds were screened for CPT activity using live cell PWS imaging. Control and 30-60 minute CPT-treated cells were imaged with live cell PWS to determine their effect on nuclear nanoscale heterogeneity (See FIG. 11A for exemplary tested compounds). […]

A2780 = assay: Cell survival by surface coverage (% inhibition / cell death); conditions: Ovarian A2780; after 48 hours, surface coverage relative to control
A2780.m248 = assay: as above; assay type: cell-based
Protocol: These compounds were tested in combination with the chemotherapy drug paclitaxel.

A2780 cells = assay: LC-PWS microscopy quantification of chromatin heterogeneity; assay type: cell-based; conditions: 5 nM for 24 hours

In the case of `CC(=O)O[C@H]1C(=O)[C@@]2(C)[C@H]([C@H](OC(=O)c3ccccc3)[C@]3(O)C[C@H](OC(=O)[C@H](O)[C@@H](NC(=O)c4ccccc4)c4ccccc4)C(C)=C1C3(C)C)[C@]1(OC(C)=O)CO[C@@H]1C[C@@H]2O` [Paclitaxel], the “% Inhibition” value (MDA-MB-231) is reported as 50%, the “structural alteration of chromatin folding” value (cancer cell lines) is reported as “increases” and the “% Inhibition” value (A2780) is reported as 21%. For the same compound, the “Surface coverage relative to control (% survival)” value (A2780.m248; A2780.m248) was 43%, the “% Inhibition” value (A2780.m248; Ovarian A2780.m248, after 48 hours, surface coverage relative to control) was 57% and the “chromatin heterogeneity after treatment” value (A2780 cells) was “increase in chromatin heterogeneity”.
